Test results taken from paper PMC3062711 (Biochimica et biophysica acta, 2010).

Target: human TRPA1 channel (hTRPA1) (Homo sapiens, UniProt O75762)
Test: inside-out patch clamp recording, hTRPA1 expressed in HEK293T cells
Assay type: cell-based

human TRPA1 channel (hTRPA1), sequence (O75762 whole entry): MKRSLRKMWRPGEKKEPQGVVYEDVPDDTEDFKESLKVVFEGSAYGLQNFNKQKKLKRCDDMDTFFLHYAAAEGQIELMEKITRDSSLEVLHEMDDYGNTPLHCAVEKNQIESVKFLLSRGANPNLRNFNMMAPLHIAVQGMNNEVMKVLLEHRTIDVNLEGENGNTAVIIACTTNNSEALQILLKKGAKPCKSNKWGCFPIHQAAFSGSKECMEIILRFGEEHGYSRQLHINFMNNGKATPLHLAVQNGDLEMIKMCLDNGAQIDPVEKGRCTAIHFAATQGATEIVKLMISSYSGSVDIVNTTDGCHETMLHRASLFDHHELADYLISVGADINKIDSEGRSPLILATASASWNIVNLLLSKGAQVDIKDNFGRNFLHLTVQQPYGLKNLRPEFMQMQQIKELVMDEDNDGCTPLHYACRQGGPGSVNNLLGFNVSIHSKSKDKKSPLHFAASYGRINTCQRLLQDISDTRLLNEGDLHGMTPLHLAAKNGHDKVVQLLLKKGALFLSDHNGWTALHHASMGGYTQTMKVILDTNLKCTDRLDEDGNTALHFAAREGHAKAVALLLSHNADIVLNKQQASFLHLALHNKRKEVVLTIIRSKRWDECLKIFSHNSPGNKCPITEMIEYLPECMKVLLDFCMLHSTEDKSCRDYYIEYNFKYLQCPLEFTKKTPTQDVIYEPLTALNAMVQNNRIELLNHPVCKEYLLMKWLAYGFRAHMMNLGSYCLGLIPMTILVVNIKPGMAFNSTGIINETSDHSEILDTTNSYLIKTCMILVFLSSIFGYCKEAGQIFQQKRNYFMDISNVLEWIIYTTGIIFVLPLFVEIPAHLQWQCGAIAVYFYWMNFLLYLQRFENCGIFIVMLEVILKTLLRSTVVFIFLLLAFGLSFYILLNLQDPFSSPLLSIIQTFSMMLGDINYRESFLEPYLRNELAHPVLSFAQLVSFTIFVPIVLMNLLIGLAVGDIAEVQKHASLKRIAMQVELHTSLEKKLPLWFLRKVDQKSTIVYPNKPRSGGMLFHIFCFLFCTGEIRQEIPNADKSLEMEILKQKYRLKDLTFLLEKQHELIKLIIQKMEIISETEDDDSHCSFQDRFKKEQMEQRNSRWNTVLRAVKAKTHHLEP

Ruthenium red [RR]
IC50: ~1800 nM
